Laboratory results taken from publication PMC12692861, “Biotin-Linked Ursolic Acid Conjugates as Selective Anticancer Agents and Target-Identification Tools for Cancer Therapy” (Molecules, 2025).

Legend:
DNA topoisomerase = experiment: Streptavidin pulldown proteomics (LC-MS/MS), 5637 cells; type: binding, human; conditions: 5637, 50 µM
Protocol: (§1) We used proteomics to identify potential molecular targets of 5c. A pulldown assay with streptavidin-agarose-coated magnetic beads was performed. Briefly, 5637 and MB49 cells were incubated with 50 µM 5c for 10 min and 1 h. After incubation, the cells were rinsed three times with cold phosphate-buffered saline (PBS), and cell lysates were prepared and clarified by centrifugation to remove cellular debris, including nuclei. The clarified lysates were incubated with streptavidin-coated magnetic beads to selectively bind biotinylated contents. Bound proteins were separated from unbound proteins through thorough bead washing. Proteins attached to the beads were eluted and analyzed on an Orbitrap Fusion Tribrid mass spectrometer (Thermo Scientific, New York, NY, USA) coupled with an Ultimate 3000 nano-UPLC system. Samples were trapped on a PepMap100 C18 trap column (5 µm, 0.3 × 5 mm) and separated on a PepMap RSLC C18 column (2 µm, 75 µm × 150 mm) using a gradient from 2 to 40% acetonitrile with 0.1% formic acid over 120 min at […] and 40 °C. MS data were acquired in positive mode using data-dependent acquisition (DDA), with precursor scans at 120,000 FWHM (400–2000 m/z), and MS/MS scans in top-speed mode (3 s cycle) using HCD fragmentation (NCE 32%). Proteins were identified and quantified based on peptide spectral matches (PSMs), and fold enrichment compared to controls was calculated to evaluate interaction strength.
(§2) The 5637 and MB49 cells were cultured and treated with higher concentrations of 5c (50 µM) for short period of times (10 min & 60 min) followed by whole cell lysis (WCL) preparation of both treated and untreated cells using modified RIPA buffer [NaCl (100mM), TrisCl (20mM, pH 7.4), EDTA (10 mM), TritonX-100 (0.5%), Glycerol (5%), Protease inhibitor cocktail (1x)] with gentle continuous rotation. The protein content of each WCL was estimated using Pierce™ BCA Protein Assay kit (Thermo-Scientific # 23225). The 100 µL of resuspended Dynabeads™ MyOne™ Streptavidin C1 (Invitrogen # 65001) were washed with PBST (PBS with 0.01% Tween™20) in a magnet stand as recommended in the manufacturer’s instructions. The washed beads were incubated with 200 µg of each WCL in separate tubes at room temperature for 2 h in a gentle end-over-end mixing. After incubation, beads were washed 3–5 times with PBST (0.01% Tween-20) on a magnetic stand and beads were decanted by after spinning and magnetization. The samples were stored at −80 °C till further analysis using LC-MS/MS by the Proteomics and Mass Spectrometry Core Laboratory of Augusta University.

[1] = tested on: Coiled-coil domain-containing protein; experiment: as above; type: binding, human; conditions: 5637, 50 µM
Protocol: as §1, §2

[2] = tested on: Eukaryotic translation initiation factor 2 (eIF2); experiment: as above; type: binding, human; conditions: 5637, 50 µM
Protocol: as §1, §2

[3] = tested on: Eukaryotic initiation factor 4A (eIF4A); experiment: as above; type: binding, human; conditions: 5637, 50 µM
Protocol: as §1, §2

HT1376 cells = experiment: ROS estimation with H2DCFDA; type: cell-based, human; conditions: HT1376, 24 h, especially at concentrations above 20 µM
Protocol: Since 5c was not toxic to non-tumorigenic cells, such as MCF12A and UROtsa, these cells were excluded from experiments aimed at identifying the broad mechanism of cytotoxicity. A common mechanism by which these antioxidants induce cytotoxicity in tumor cells is by generating Reactive Oxygen Species (ROS) selectively in fast-growing tumor cells. The levels of ROS generated by 5c exposed cells were evaluated with the oxidation of 2′,7′-dichlorodihydrofluorescein diacetate (H2DCFDA). It is a cell-permeant fluorescent probe used for detecting ROS production (Thermo Scientific Inc., Waltham, MA, USA). […] Figure 3 illustrates the quantification of intracellular ROS levels in four bladder cancer cell lines, 5637, T24, HT-1376, and MB49, following treatment with UA and its biotin-conjugated derivative, compound 5c.
The relative levels of intracellular ROS produced in untreated and drug-treated cells were analyzed by fluorimetry using the fluorescent probe H2DCFDA (Sigma-Aldrich, #D6883, St. Louis, MI, USA), as described previously. Briefly, cells cultured in a 96-well plate at 1 × 10^4 cells per well were treated with drugs of interest for 24 h rinsed with sterile PBS to remove excess drugs, and incubated with 10 μM DCFDA for 30 min at 37 °C and 5% CO2. Following three rinses with PBS, the fluorescence intensity was recorded at excitation: 485/20, emission: 528/20 using a BioTek Synergy HTX Multimode fluorescence plate reader (Agilent Technologies, Inc., Santa Clara, CA, USA), and the data were represented as percentage change compared to the respective untreated control.
Figure 3 Estimation of oxidative stress: Treatment with UA or 5c increased ROS levels in various bladder cancer cells. ROS levels were estimated at 24 h using DCFDA. The relative fluorescence unit (RFU) was normalized to that observed in untreated cells and expressed as a percent increase. Data are Means ± SD, (n = 4). Relative significance, expressed as p-value are calculated based on one-way ANOVA.

[4] = tested on: RNA-binding protein 39 (RBM39); experiment: Streptavidin pulldown proteomics (LC-MS/MS), MB49 cells; parameters: species or system murine; conditions: MB-49, 50 µM
Protocol: as §1, §2

[5] = tested on: ATP-binding cassette sub-family A; experiment: as above; parameters: species or system murine; conditions: MB-49, 50 µM
Protocol: as §1, §2

[6] = target: Poly(U)-binding-splicing factor 60 (PUF60) (Mus musculus, UniProt Q3UEB3); experiment: as above; parameters: species or system murine; conditions: MB-49, 50 µM
Protocol: as §1, §2

Chain of Poly(U)-binding-splicing factor 60 (PUF60) (Q3UEB3 whole entry): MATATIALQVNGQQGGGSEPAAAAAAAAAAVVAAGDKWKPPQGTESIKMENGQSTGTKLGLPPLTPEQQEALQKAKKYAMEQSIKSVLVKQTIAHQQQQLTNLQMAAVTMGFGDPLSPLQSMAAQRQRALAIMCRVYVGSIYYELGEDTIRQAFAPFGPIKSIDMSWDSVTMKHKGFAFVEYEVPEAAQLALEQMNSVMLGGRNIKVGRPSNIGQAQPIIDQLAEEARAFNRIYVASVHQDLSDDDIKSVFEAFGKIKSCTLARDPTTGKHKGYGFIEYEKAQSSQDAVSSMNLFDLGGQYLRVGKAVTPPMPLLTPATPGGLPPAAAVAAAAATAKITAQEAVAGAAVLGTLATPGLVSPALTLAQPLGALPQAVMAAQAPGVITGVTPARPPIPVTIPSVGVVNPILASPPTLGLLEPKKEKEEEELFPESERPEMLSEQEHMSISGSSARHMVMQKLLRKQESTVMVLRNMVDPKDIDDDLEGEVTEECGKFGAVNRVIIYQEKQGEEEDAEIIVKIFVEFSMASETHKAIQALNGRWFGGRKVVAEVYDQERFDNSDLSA

Fold Change 10 min/Ctrl [6]: 2.33
Fold Change 1 h/Ctrl [6]: 3.33
SMILES: CC1CCC2(C(=O)OCCCCOC(=O)CCCCC3SCC4NC(=O)NC43)CCC3(C)C(=CCC4C5(C)CCC(O)C(C)(C)C5CCC43C)C2C1C [Compound 5c, 4-((5-((3aS,4S,6aR)-2-Oxohexahydro-1H-thieno [3,4-d]imidazol-4-yl)pentanoyl)oxy) butyl 3-hydroxy-urs-12-en-28-oate]
Fold Change 10 min/Ctrl (DNA topoisomerase): 0.08
Fold Change 1 h/Ctrl (DNA topoisomerase): 0.11
Fold Change 10 min/Ctrl [1]: 0
Fold Change 1 h/Ctrl [1]: 2
Fold Change 10 min/Ctrl [2]: 14
Fold Change 1 h/Ctrl [2]: 7
Fold Change 10 min/Ctrl [3]: 22
Fold Change 1 h/Ctrl [3]: 19
ROS levels (HT1376 cells): higher levels of ROS than UA
Fold Change 10 min/Ctrl [4]: 2
Fold Change 1 h/Ctrl [4]: 1.71
Fold Change 10 min/Ctrl [5]: 1
Fold Change 1 h/Ctrl [5]: 2
